Columns and labels:
[1] = system: IL6 production in RAW 264.7 macrophage cell line; test: Mouse IL6 quantification assay (LPS-stimulated macrophages, ELISA); type: cell-based; details: RAW264.7, RAW 264.7 murine leukemia virus transformed macrophage cell lines, LPS stimulation, read-out: IL-6 % Inhibition at 30 μM
[2] = system: TNFα production in RAW 264.7 macrophage cell line; test: Mouse TNF alpha quantification assay (LPS-stimulated macrophages, ELISA); type: cell-based; details: RAW264.7, RAW 264.7 murine leukemia virus transformed macrophage cell lines, LPS stimulation, read-out: TNF-α % Inhibition at 30 μM

CN(C)Cc1ccc(-c2csc3c(O)nc(-c4ccccn4)nc23)cc1F [drawing 2238]
inhibition at 30 µM [1]: 76 to 100% | inhibition at 30 µM [2]: 51 to 75%

COCc1ccc(-c2csc3c(O)nc(-c4ccccn4)nc23)cc1F [drawing 2239]
inhibition at 30 µM [1]: 76 to 100% | inhibition at 30 µM [2]: 51 to 75%

CC(C)(C)c1ccc(-c2csc3c(O)nc(-c4ccccn4)nc23)cc1 [drawing 2240]
inhibition at 30 µM [1]: 76 to 100% | inhibition at 30 µM [2]: 76 to 100%

Oc1nc(-c2ccccn2)nc2c(-c3cc(Cl)cc(Cl)c3)csc12 [drawing 2241]
inhibition at 30 µM [1]: 0% | inhibition at 30 µM [2]: 1 to 25%

Oc1nc(-c2ccccn2)nc2c(-c3cccc4c3OCO4)csc12 [drawing 2242]
inhibition at 30 µM [1]: 51 to 75% | inhibition at 30 µM [2]: 51 to 75%

O=C(O)c1cc2nc(-c3ccccn3)nc(O)c2s1 [drawing 2243]
inhibition at 30 µM [1]: 1 to 25% | inhibition at 30 µM [2]: 1 to 25%

Oc1nc(-c2ccccn2)nc2sc3c(c12)CCNC3 [drawing 2244]
inhibition at 30 µM [1]: 26 to 50% | inhibition at 30 µM [2]: 26 to 50%

Oc1nc(-c2ccccn2)nc2sc3c(c12)CCCNC3 [drawing 2245]
inhibition at 30 µM [1]: 1 to 25% | inhibition at 30 µM [2]: 1 to 25%

COc1ccc(CCNC(=O)c2csc3nc(-c4ccccn4)nc(N4CCS(=O)(=O)CC4)c23)cn1 [drawing 2246]
inhibition at 30 µM [1]: 26 to 50% | inhibition at 30 µM [2]: 0%

O=C(NCCc1cnc(O)nc1)c1csc2nc(-c3ccccn3)nc(N3CCS(=O)(=O)CC3)c12 [drawing 2247]
inhibition at 30 µM [1]: 51 to 75% | inhibition at 30 µM [2]: 0%

N#Cc1ccc2c(c1)CCCC2C(=O)Nc1ccnc(-c2ccccn2)n1 (centres unmarked) [drawing 2248]
inhibition at 30 µM [1]: 1 to 25% | inhibition at 30 µM [2]: 0%

Cc1cnc(-c2ccccn2)nc1NC(=O)Cc1ccc2cnccc2c1 [drawing 2249]
inhibition at 30 µM [1]: 76 to 100% | inhibition at 30 µM [2]: 0%

O=C(COCc1ccnc(O)c1)Nc1nc(-c2ccccn2)nc2sccc12 [drawing 2250]
inhibition at 30 µM [1]: 26 to 50% | inhibition at 30 µM [2]: 0%

Nc1nc(-c2ccccn2)nc2c(-c3ccccc3)csc12 [drawing 2251]
inhibition at 30 µM [1]: 76 to 100% | inhibition at 30 µM [2]: 51 to 75%

Oc1nc(-c2ccccn2)nc2c(-c3cc(F)ccc3OC(F)F)csc12 [drawing 2252]
inhibition at 30 µM [1]: 76 to 100% | inhibition at 30 µM [2]: 26 to 50%

Cn1nnc2ccc(-c3csc4c(O)nc(-c5ccccn5)nc34)cc21 [drawing 2253]
inhibition at 30 µM [1]: 76 to 100% | inhibition at 30 µM [2]: 1 to 25%

Oc1nc(-c2ccccn2)nc2c(-c3ccc(OC4CCOC4)cc3)csc12 (centres unmarked) [drawing 2254]
inhibition at 30 µM [1]: 76 to 100% | inhibition at 30 µM [2]: 26 to 50%

Oc1nc(-c2ccccn2)nc2c(-c3ccc(OC4CCCC4)cc3)csc12 [drawing 2255]
inhibition at 30 µM [1]: 76 to 100% | inhibition at 30 µM [2]: 0%

O=S1(=O)CCN(Cc2cccc(-c3csc4c(O)nc(-c5ccccn5)nc34)c2)CC1 [drawing 2256]
inhibition at 30 µM [1]: 76 to 100% | inhibition at 30 µM [2]: 1 to 25%

Oc1nc(-c2ccccn2)nc2c(-c3ccc(C4CCC4)cc3)csc12 [drawing 2257]
inhibition at 30 µM [1]: 51 to 75% | inhibition at 30 µM [2]: 0%

Oc1nc(-c2ccccn2)nc2c(-c3ccccc3OC3CCCCC3)csc12 [drawing 2258]
inhibition at 30 µM [1]: 76 to 100% | inhibition at 30 µM [2]: 26 to 50%

Oc1nc(-c2ccccn2)nc2c(-c3ccc(OC4CCOCC4)cc3)csc12 [drawing 2259]
inhibition at 30 µM [1]: 76 to 100% | inhibition at 30 µM [2]: 0%

Oc1nc(-c2ccccn2)nc2c(-c3ccccc3F)csc12 [drawing 2260]
inhibition at 30 µM [1]: 76 to 100% | inhibition at 30 µM [2]: 51 to 75%

COc1cc(C)c(-c2csc3c(O)nc(-c4ccccn4)nc23)cc1C [drawing 2261]
inhibition at 30 µM [1]: 51 to 75% | inhibition at 30 µM [2]: 0%

COc1ccccc1-c1csc2c(O)nc(-c3ccccn3)nc12 [drawing 2262]
inhibition at 30 µM [1]: 76 to 100% | inhibition at 30 µM [2]: 51 to 75%

Oc1nc(-c2ccccn2)nc2c(-c3ccc(F)cc3F)csc12 [drawing 2263]
inhibition at 30 µM [1]: 76 to 100% | inhibition at 30 µM [2]: 26 to 50%

COc1cccc(-c2csc3c(O)nc(-c4ccccn4)nc23)c1 [drawing 2264]
inhibition at 30 µM [1]: 76 to 100% | inhibition at 30 µM [2]: 26 to 50%

Oc1nc(-c2ccccn2)nc2c(-c3cccc(C(F)(F)F)c3)csc12 [drawing 2265]
inhibition at 30 µM [1]: 76 to 100% | inhibition at 30 µM [2]: 76 to 100%

COc1ccc(F)cc1-c1csc2c(O)nc(-c3ccccn3)nc12 [drawing 2266]
inhibition at 30 µM [1]: 76 to 100% | inhibition at 30 µM [2]: 26 to 50%

Oc1nc(-c2ccccn2)nc2c(-c3ccsc3)csc12 [drawing 2267]
inhibition at 30 µM [1]: 76 to 100% | inhibition at 30 µM [2]: 76 to 100%

Oc1nc(-c2ccccn2)nc2c(-c3ccc(OC(F)F)cc3F)csc12 [drawing 2268]
inhibition at 30 µM [1]: 76 to 100% | inhibition at 30 µM [2]: 26 to 50%

CC(C)COc1ccc(-c2csc3c(O)nc(-c4ccccn4)nc23)cn1 [drawing 2269]
inhibition at 30 µM [1]: 76 to 100% | inhibition at 30 µM [2]: 51 to 75%

Cc1cc(OC(F)F)ccc1-c1csc2c(O)nc(-c3ccccn3)nc12 [drawing 2270]
inhibition at 30 µM [1]: 76 to 100% | inhibition at 30 µM [2]: 0%

Oc1nc(-c2ccccn2)nc2c(-c3ccc4c(c3)OCO4)csc12 [drawing 2271]
inhibition at 30 µM [1]: 76 to 100% | inhibition at 30 µM [2]: 76 to 100%

CC(C)(O)c1ccc(-c2csc3c(O)nc(-c4ccccn4)nc23)c(F)c1 [drawing 2272]
inhibition at 30 µM [1]: 76 to 100% | inhibition at 30 µM [2]: 76 to 100%

COc1ccc(-c2csc3c(O)nc(-c4ccccn4)nc23)c(C)c1 [drawing 2273]
inhibition at 30 µM [1]: 76 to 100% | inhibition at 30 µM [2]: 76 to 100%

Oc1nc(-c2ccccn2)nc2c(-c3ccc(CN4CCOCC4)cc3)csc12 [drawing 2274]
inhibition at 30 µM [1]: 26 to 50% | inhibition at 30 µM [2]: 0%

Oc1nc(-c2ccccn2)nc2c(-c3ccccc3C(F)F)csc12 [drawing 2275]
inhibition at 30 µM [1]: 76 to 100% | inhibition at 30 µM [2]: 76 to 100%

COc1cc(-c2csc3c(O)nc(-c4ccccn4)nc23)cnc1C(F)(F)F [drawing 2276]
inhibition at 30 µM [1]: 51 to 75% | inhibition at 30 µM [2]: 1 to 25%

CNC(=O)c1ccc(-c2csc3c(O)nc(-c4ccccn4)nc23)cc1C [drawing 2277]
inhibition at 30 µM [1]: 26 to 50% | inhibition at 30 µM [2]: 0%

OCC1(c2ccc(-c3csc4c(O)nc(-c5ccccn5)nc34)cc2)CC1 [drawing 2278]
inhibition at 30 µM [1]: 76 to 100% | inhibition at 30 µM [2]: 1 to 25%

Oc1nc(-c2ccccn2)nc2c(-c3ccc(OC4CCCCC4)cc3)csc12 [drawing 2279]
inhibition at 30 µM [1]: 76 to 100% | inhibition at 30 µM [2]: 76 to 100%

Cc1cnccc1-c1csc2c(O)nc(-c3ccccn3)nc12 [drawing 2280]
inhibition at 30 µM [1]: 76 to 100% | inhibition at 30 µM [2]: 26 to 50%

O=C(CCn1ccnc1)Nc1nc(-c2ccccn2)nc2sccc12 [drawing 2281]
inhibition at 30 µM [1]: 51 to 75% | inhibition at 30 µM [2]: 0%

O=C(CCc1nn[nH]n1)Nc1nc(-c2ccccn2)nc2sccc12 [drawing 2282]
inhibition at 30 µM [1]: 1 to 25% | inhibition at 30 µM [2]: 0%

O=C(CCc1cncnc1)Nc1nc(-c2ccccn2)nc2sccc12 [drawing 2283]
inhibition at 30 µM [1]: 26 to 50% | inhibition at 30 µM [2]: 0%

Nc1nc(-c2ccccn2)nc2c(Br)csc12 [drawing 2284]
inhibition at 30 µM [1]: 26 to 50% | inhibition at 30 µM [2]: 0%

Cc1sc2c(N)nc(-c3ccccn3)nc2c1Br [drawing 2285]
inhibition at 30 µM [1]: 1 to 25% | inhibition at 30 µM [2]: 0%

COC(=O)c1csc2nc(-c3ccccn3)nc(N)c12 [drawing 2287]
inhibition at 30 µM [1]: 51 to 75% | inhibition at 30 µM [2]: 0%

Oc1nc(-c2ccccn2)nc2c(-c3ccccn3)csc12 [drawing 2288]
inhibition at 30 µM [1]: 76 to 100% | inhibition at 30 µM [2]: 76 to 100%

COc1nccc(CCNC(=O)c2csc3nc(-c4ccccn4)nc(N4CCOCC4)c23)n1 [drawing 2289]
inhibition at 30 µM [1]: 26 to 50% | inhibition at 30 µM [2]: 0%

O=C(NCCc1ccnc(O)n1)c1csc2nc(-c3ccccn3)nc(N3CCOCC3)c12 [drawing 2290]
inhibition at 30 µM [1]: 1 to 25% | inhibition at 30 µM [2]: 0%

CN1CCN(c2nc(-c3ccccn3)nc3scc(C(=O)NCCc4cnc(O)nc4)c23)CC1 [drawing 2291]
inhibition at 30 µM [1]: 26 to 50% | inhibition at 30 µM [2]: 26 to 50%

Oc1nc(-c2ccccn2)nc2c(-c3cc(F)cc(F)c3)csc12 [drawing 2292]
inhibition at 30 µM [1]: 76 to 100% | inhibition at 30 µM [2]: 51 to 75%

CN(C)Cc1ccc(F)c(-c2csc3c(O)nc(-c4ccccn4)nc23)c1 [drawing 2293]
inhibition at 30 µM [1]: 76 to 100% | inhibition at 30 µM [2]: 51 to 75%

Oc1nc(-c2ccccn2)nc2c(-c3ccc4c(c3)CCCO4)csc12 [drawing 2294]
inhibition at 30 µM [1]: 1 to 25% | inhibition at 30 µM [2]: 0%

CCn1nc(C)cc1-c1csc2c(O)nc(-c3ccccn3)nc12 [drawing 2295]
inhibition at 30 µM [1]: 76 to 100% | inhibition at 30 µM [2]: 51 to 75%

Oc1nc(-c2ccccn2)nc2c(-c3ccnn3-c3ccccn3)csc12 [drawing 2296]
inhibition at 30 µM [1]: 51 to 75% | inhibition at 30 µM [2]: 0%

Cc1sc2c(O)nc(-c3ccccn3)nc2c1-c1ccccc1 [drawing 2297]
inhibition at 30 µM [1]: 76 to 100% | inhibition at 30 µM [2]: 76 to 100%

Nc1nc(-c2ccccn2)nc2scc(C(=O)O)c12 [drawing 2298]
inhibition at 30 µM [1]: 1 to 25% | inhibition at 30 µM [2]: 1 to 25%

COC(=O)c1cc2nc(-c3ccccn3)nc(O)c2s1 [drawing 2299]
inhibition at 30 µM [1]: 76 to 100% | inhibition at 30 µM [2]: 51 to 75%

Oc1nc(-c2ccccn2)nc2c(-c3cnc4ccccc4c3)csc12 [drawing 2300]
inhibition at 30 µM [1]: 76 to 100% | inhibition at 30 µM [2]: 1 to 25%

Oc1nc(-c2ccccn2)nc2c(-c3ccc(Cl)c(Cl)c3)csc12 [drawing 2301]
inhibition at 30 µM [1]: 26 to 50% | inhibition at 30 µM [2]: 0%

Oc1nc(-c2ccccn2)nc2c(-c3cncc(F)c3)csc12 [drawing 2302]
inhibition at 30 µM [1]: 51 to 75% | inhibition at 30 µM [2]: 0%

Oc1nc(-c2ccccn2)nc2c(-c3cc(C(F)(F)F)ccc3F)csc12 [drawing 2303]
inhibition at 30 µM [1]: 76 to 100% | inhibition at 30 µM [2]: 1 to 25%

Oc1nc(-c2ccccn2)nc2c(-c3cncc(C(F)(F)F)c3)csc12 [drawing 2304]
inhibition at 30 µM [1]: 1 to 25% | inhibition at 30 µM [2]: 0%

Cc1cncc(-c2csc3c(O)nc(-c4ccccn4)nc23)c1 [drawing 2305]
inhibition at 30 µM [1]: 76 to 100% | inhibition at 30 µM [2]: 1 to 25%

— US10940139B2, “Compounds that interact with the Ras superfamily for the treatment of cancers, inflammatory diseases, rasopathies, and fibrotic disease” (Shy Therapeutics LLC, priority 2017, dated 2021)
